In ChEMBL document CHEMBL2074529, “Increased sensitivity to gemcitabine of P-glycoprotein and multidrug resistance-associated protein-overexpressing human cancer cell lines” (Br J Cancer, 2003):

How the values were obtained:
Assay type in all cases: functional, cell-based
[1] = target: T1, ATP-dependent translocase ABCB1 (Homo sapiens, UniProt P08183); experiment: TP_TRANSPORTER: drug resistance in […]-expressing SWI573/SI(I.I) cells
[2] = target: T1, ATP-dependent translocase ABCB1; experiment: TP_TRANSPORTER: drug resistance in MDR1-expressing BROmdr cells
[3] = target: T1, ATP-dependent translocase ABCB1; experiment: TP_TRANSPORTER: drug resistance in 2RI60 cells
[4] = target: T1, ATP-dependent translocase ABCB1; experiment: TP_TRANSPORTER: drug resistance in 2780AD cells

Measured: Activity

T1 sequence (P08183 whole entry): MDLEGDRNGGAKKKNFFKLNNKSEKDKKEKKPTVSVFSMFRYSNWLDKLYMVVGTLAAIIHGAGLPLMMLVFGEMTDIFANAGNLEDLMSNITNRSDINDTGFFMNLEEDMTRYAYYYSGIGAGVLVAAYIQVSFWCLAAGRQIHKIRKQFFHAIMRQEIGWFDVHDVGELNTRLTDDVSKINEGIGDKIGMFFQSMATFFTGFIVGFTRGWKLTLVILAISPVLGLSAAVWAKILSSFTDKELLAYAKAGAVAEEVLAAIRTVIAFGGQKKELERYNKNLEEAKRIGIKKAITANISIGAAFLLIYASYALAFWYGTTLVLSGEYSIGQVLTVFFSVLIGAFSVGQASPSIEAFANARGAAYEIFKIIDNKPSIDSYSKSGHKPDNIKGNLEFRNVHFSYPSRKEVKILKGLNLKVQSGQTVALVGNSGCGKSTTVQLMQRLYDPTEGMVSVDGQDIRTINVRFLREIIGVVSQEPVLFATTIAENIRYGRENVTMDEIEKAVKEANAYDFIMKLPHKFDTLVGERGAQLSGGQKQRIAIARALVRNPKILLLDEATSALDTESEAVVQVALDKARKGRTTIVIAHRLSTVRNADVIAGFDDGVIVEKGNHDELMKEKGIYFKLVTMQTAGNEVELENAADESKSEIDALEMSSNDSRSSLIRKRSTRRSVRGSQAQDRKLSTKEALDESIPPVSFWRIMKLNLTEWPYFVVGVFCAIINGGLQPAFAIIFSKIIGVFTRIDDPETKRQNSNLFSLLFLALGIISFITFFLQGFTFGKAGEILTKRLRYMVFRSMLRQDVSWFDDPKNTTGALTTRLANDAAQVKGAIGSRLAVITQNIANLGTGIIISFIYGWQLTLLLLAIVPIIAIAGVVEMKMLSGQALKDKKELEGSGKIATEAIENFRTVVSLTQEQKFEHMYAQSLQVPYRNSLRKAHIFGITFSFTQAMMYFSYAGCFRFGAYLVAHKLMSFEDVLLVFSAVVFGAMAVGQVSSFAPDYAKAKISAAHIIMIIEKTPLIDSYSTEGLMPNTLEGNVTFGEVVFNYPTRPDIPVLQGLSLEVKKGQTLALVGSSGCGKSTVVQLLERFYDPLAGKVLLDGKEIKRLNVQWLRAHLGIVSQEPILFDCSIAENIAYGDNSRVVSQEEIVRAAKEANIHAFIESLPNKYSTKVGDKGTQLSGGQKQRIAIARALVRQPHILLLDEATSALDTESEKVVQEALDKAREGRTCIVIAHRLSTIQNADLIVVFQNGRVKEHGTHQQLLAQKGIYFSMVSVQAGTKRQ

Nc1ccn([C@@H]2O[C@H](CO)[C@@H](O)C2(F)F)c(=O)n1 [GEMCITABINE]
substrate [+]: all assays above
